From patent US5122448A, “Assay of anti-Epstein-Barr virus nuclear antigen antibodies with synthetic polypeptides” (Scripps Clinic and Research Foundation, priority 1990, dated 1992)
Where two headings read alike, the source gives them in different places. Residues, ends and D or L forms follow the SMILES beside them.

Experiments:
[1] = Circular dichroism spectroscopy; format: physicochemical; details: 1 mg/ml in phosphate buffered saline
Protocol: The conformational properties of the polypeptides were investigated to elucidate any secondary structure that might be necessary for polypeptide immunoreaction with human anti-EBNA antibodies. The polypeptides were dissolved at a concentration of 1 mg/ml in phosphate-buffered saline (PBS). Spectra were taken using 1 ml samples in a Cary 61 spectropolarimeter (Cary Instruments, Applied Physics Corp., Monrovia, Calif.) interfaced and automated with a Digital Equipment Corporation 11/02 computer (Digital Equipment Corporation, Maynard, Mass.).

[2] = system: anti-EBNA antibodies (IgG, IgM, IgA)
Protocol: Additional assays utilized in these studies wherein IgG to IgM ratios were determined to assess the state of EBV-induced disease were carried out as described in Smith et al., J. Infect. Dis., 154:885-889 (1986) and Geltosky et al., J. Clin Lab Analysis, 1:153-162 (1987).
The solution was thereafter discarded and the plates were blocked with 300 ul of 10 percent normal goat serum in phosphate-buffered saline (PBS) at pH 7.3. After 90 minutes of maintenance (incubation) at 37 degrees C., the wells were emptied and dried for 60 minutes at 37 degrees C.
At this time, 200 ul of 10 percent goat serum in PBS were added to the wells. A volume of 10 ul of patient specimen serum was admixed to each goat serum-containing well to form a solid/liquid phase admixture. That admixture was maintained for a time period of one hour at room temperature to permit binding of any antibodies present to the solid support and form a solid phase-bound immunoreactant containing those antibodies.
After washing five times with 350 ul of 0.05% Tween-20 [polyoxyethylene (20) sorbitan monolaurate] in PBS to effect separation of the solid and liquid phases, a solution of 200 ul of horseradish peroxidase-(HRPO-) conjugated mouse monoclonal antibody to human IgG or IgM (Ortho Diagnostic Systems, Raritan, N.J.) was admixed to each well to form a second solid/liquid phase admixture. This second solid/liquid admixture was maintained for another one hour time period to permit the enzyme-linked antibodies to bind to any solid phase-bound antibodies formed in the first solid/liquid phase admixture.
After separation of the solid and liquid phases, and washing of the solid phase five times using the Tween-20/PBS solution, above, color was developed by admixture of o-phenylenediamine (OPD; 2 mg of a citrate-buffered tablet dissolved in 3 ml of water; Pitman-Moore, Washington Crossing, N.J.) and hydrogen peroxide. The resulting solution was maintained for 30 minutes at room temperature. The reaction was stopped by admixture of 50 ul of 2N HCl, and the absorbance was determined at 490 nanometers (nm).
positive control ratio =reference absorbance value/mean absorbance of positive control.
The positive control was assigned a reference absorbance value (O.D.) of 1.0. […] The absorbance value for the controls and for each test specimen were multiplied by the positive control ratio to achieve a standardized ELISA value. Cutoff values (mean OD+SD) have been previously described [Geltosky et al. J. Clin. Lab. Analysis, 1:153-162 (1987)]. […] Absorbance values less than 0.7 were considered to represent an acute infection due to EBV [Smith et al., J Infect Dis., 154:885-889 (1986)].

[3] = system: anti-EBNA antibodies (IgM, IgG); details: 405 nanometer
Source text: To differentiate the class of immunoglobulin predominantly responsible for an individual's immune response at a given time during the course of infectious mononucleosis, secondary (indicating) antibodies specific for human IgG or IgM were used in the ELISA as described in the Methods and Materials section (III).
Briefly, microtiter wells (Costar, #3590, Cambridge, MA) were typically coated with individual polypeptides as antigens by adding 100 microliters (ul) of BBS [10 millimoler (mM) sodium borate (pH 8.3), 150 mM NaCl] containing polypeptide at a concentration of 10 micrograms per milliliter (ug/ml). Contact between the wells and antigen-containing solution was maintained for a predetermined time, typically 15 minutes, and at 20 degrees C., to form an antigen-coated solid phase. The solid and liquid phases were separated and the wells were washed three times with BBS.
Non-specific binding sites were blocked by admixing 200 microliters of 1% bovine serum albumin (BSA) in each well to form another solid/liquid phase admixture, and maintaining that solid/liquid phase admixture for 30 minutes, at 20 degrees C. The phases were separated and excess, unbound BSA was removed by washing three times with BBS.
Rabbit and human sera (body sample aliquots) were assayed for anti-polypeptide activity by adding 100 microliters of a serum diluted 1:20 in BBS per well to form a solid/liquid phase composition. Contact between the diluted sera and the antigen-coated solid phase was maintained for a predetermined time such as 1 hour, and at 20 degrees C., for an immunoreactant to form. The solid and liquid phases were separated, and the solid phase; i.e., antigen-coated, immunoreactant-containing wells, was then washed three times with BBS.
The antibodies in human sera that immunoreacted with an adsored polypeptide were detected using an indicating means comprising alkaline phosphatase-conjugated goat anti-human Ig antibody (Tago, Burlington, Calif.). The antibodies in rabbit sera that immunoreacted with an adsorbed polypeptide were detected using an indicating means comprising alkaline phosphatase-conjugated goat anti-rabbit Ig antibody (Kirkegard & Perry Laboratories, Inc., Gaithersburg, MD). In either instance, 100 microliters of the indicating antibody diluted 1:300 in BBS were added per well to form a further solid/liquid phase composition. This solid-liquid phase composition was maintained for a predetermined time, one hour, for the formation of a reaction product between the human antibodies bound to the solid phase and the indicating means, and at 20 degrees C. The phases were separated, and the solid phase was washed 3 times with BBS.
Alkaline phosphatase-conjugated antibody bound to polypeptide specific antibody was detected by spectrophotometrically measuring the enzymatic hydrolysis of p-nitrophenyl phosphate to p-nitrophenol. Briefly, 100 microliters of p-nitrophenyl phosphate [1 milligram per milliliter in 2 mM MgCl 2, (pH 9.8), 50 mM sodium carbonate] were added to each well. The enzymatic reaction was allowed to proceed 1 hour and then the optical density at 405 nm was determined in a [sequence] spectrophotometer available from Flow Laboratories, Inglewood, Calif.

[4] = acute IM Patient 1, 1 days post onset
[5] = acute IM Patient 1, 29 days post onset
[6] = acute IM Patient 1, 95 days post onset
[7] = acute IM Patient 1, 184 days post onset
[8] = acute IM Patient 1, 373 days post onset
[9] = acute IM Patient 2, 17 days post onset
[10] = acute IM Patient 2, 28 days post onset
[11] = acute IM Patient 2, 68 days post onset
[12] = acute IM Patient 2, 194 days post onset
[13] = acute IM Patient 2, 404 days post onset
[14] = acute IM Patient 8, 8 days post onset
[15] = acute IM Patient 8, 38 days post onset
[16] = acute IM Patient 8, 109 days post onset
[17] = acute IM Patient 8, 404 days post onset
[18] = acute IM Patient 11, 2 days post onset
[19] = acute IM Patient 11, 23 days post onset
[20] = acute IM Patient 11, 372 days post onset
[21] = acute IM Patient 11, 1,519 days post onset
[22] = Patient 15, 1 Month after infection
[23] = Patient 15, 1 Week after infection
[24] = Patient 15, 3 Months after infection
[25] = Patient 15, 12 Months after infection
[26] = Patient 15, 21 Months after infection
[27] = Patient three, 1 Month after infection
[28] = Patient three, 1 Week after infection
[29] = Patient three, 3 Months after infection
[30] = Patient three, 21 Months after infection

SMILES: C[C@H](N)C(=O)NCC(=O)N[C@@H](C)C(=O)NCC(=O)NCC(=O)NCC(=O)N[C@@H](C)C(=O)NCC(=O)NCC(=O)N[C@@H](C)C(=O)NCC(=O)N[C@@H](C)C(=O)NCC(=O)NCC(=O)NCC(=O)N[C@@H](C)C(=O)NCC(=O)NCC(=O)N[C@@H](C)C(=O)NCC(=O)O [Polypeptide P62, H--Ala--Gly--Ala--Gly--Gly--Gly--Ala--Gly--Gly--Ala--Gly--Ala--Gly--Gly--Gly--Ala--Gly--Gly--Ala--Gly--OH] (H-AGAGGGAGGAGAGGGAGGAG-OH)
- Conformation by circular dichroism spectrum [1]: relatively stable secondary structure
- IgM anti-peptide P62 antibodies during acute phase of CMV disease ([2]; 10 patients with CMV-IM): All 10 patients showed a pronounced increase
- Sera positive for NPC in IgA anti-P62 assay ([2]; 13 sera from NPC patients): 10 of 13
- IgA level ([2]; Heterophil-Positive Sera marked with footnote 2 (samples 2 and 6)): > 0.300 OD 490
- IgG OD 490 [2, 4]: 0.011 OD 490
- IgM OD 490 [2, 4]: 0.189 OD 490
- Ratio IgG/IgM [2, 4]: 0.058
- IgG OD 490 [2, 5]: 0.023 OD 490
- IgM OD 490 [2, 5]: 0.527 OD 490
- Ratio IgG/IgM [2, 5]: 0.043
- IgG OD 490 [2, 6]: 0.162 OD 490
- IgM OD 490 [2, 6]: 0.329 OD 490
- Ratio IgG/IgM [2, 6]: 0.492
- IgG OD 490 [2, 7]: 0.552 OD 490
- IgM OD 490 [2, 7]: 0.245 OD 490
- Ratio IgG/IgM [2, 7]: 2.253
- IgG OD 490 [2, 8]: 0.858 OD 490
- IgM OD 490 [2, 8]: 0.152 OD 490
- Ratio IgG/IgM [2, 8]: 5.644
- IgG OD 490 [2, 9]: 0.125 OD 490
- IgM OD 490 [2, 9]: 0.682 OD 490
- Ratio IgG/IgM [2, 9]: 0.183
- IgG OD 490 [2, 10]: 0.167 OD 490
- IgM OD 490 [2, 10]: 0.674 OD 490
- Ratio IgG/IgM [2, 10]: 0.247
- IgG OD 490 [2, 11]: 0.112 OD 490
- IgM OD 490 [2, 11]: 0.459 OD 490
- Ratio IgG/IgM [2, 11]: 0.244
- IgG OD 490 [2, 12]: 0.233 OD 490
- IgM OD 490 [2, 12]: 0.596 OD 490
- Ratio IgG/IgM [2, 12]: 0.390
- IgG OD 490 [2, 13]: 0.674 OD 490
- IgM OD 490 [2, 13]: 0.665 OD 490
- Ratio IgG/IgM [2, 13]: 1.013
- IgG OD 490 [2, 14]: 0.319 OD 490
- IgM OD 490 [2, 14]: 1.046 OD 490
- Ratio IgG/IgM [2, 14]: 0.305
- IgG OD 490 [2, 15]: 0.165 OD 490
- IgM OD 490 [2, 15]: 0.696 OD 490
- Ratio IgG/IgM [2, 15]: 0.237
- IgG OD 490 [2, 16]: 0.141 OD 490
- IgM OD 490 [2, 16]: 0.603 OD 490
- Ratio IgG/IgM [2, 16]: 0.234
- IgG OD 490 [2, 17]: 1.304 OD 490
- IgM OD 490 [2, 17]: 0.562 OD 490
- Ratio IgG/IgM [2, 17]: 2.320
- IgG OD 490 [2, 18]: 0.005 OD 490
- IgM OD 490 [2, 18]: 0.055 OD 490
- Ratio IgG/IgM [2, 18]: 0.091
- IgG OD 490 [2, 19]: 0.016 OD 490
- IgM OD 490 [2, 19]: 0.702 OD 490
- Ratio IgG/IgM [2, 19]: 0.023
- IgG OD 490 [2, 20]: 0.878 OD 490
- IgM OD 490 [2, 20]: 0.643 OD 490
- Ratio IgG/IgM [2, 20]: 1.365
- IgG OD 490 [2, 21]: 1.079 OD 490
- IgM OD 490 [2, 21]: 0.199 OD 490
- Ratio IgG/IgM [2, 21]: 5.422
- IgG/IgM ratio ([2]; patient five (EBV-IM), May 1985 specimen, late convalescent phase): exceeded 0.7
- IgG/IgM ratio ([2]; patient one (CMV-IM), during the acute illness): 0.661
- IgG/IgM ratio ([2]; patient one (CMV-IM), pre-illness samples): ~2
- Patients scored positive in the EBNA P62 ELISA by the ratio analysis ([2]; ten patients with acute CMV-IM infection): eight of ten
- IgG antipeptide activity [3, 22]: 118 Optical density
- IgM antipeptide activity [3, 22]: 225 Optical density
- IgG antipeptide activity [3, 23]: 113 Optical density
- IgM antipeptide activity [3, 23]: 152 Optical density
- IgG antipeptide activity [3, 24]: 118 Optical density
- IgM antipeptide activity [3, 24]: 208 Optical density
- IgG antipeptide activity [3, 25]: 375 Optical density
- IgM antipeptide activity [3, 25]: 249 Optical density
- IgG antipeptide activity [3, 26]: 994 Optical density
- IgM antipeptide activity [3, 26]: 185 Optical density
- IgG antipeptide activity [3, 27]: 37 Optical density
- IgM antipeptide activity [3, 27]: 87 Optical density
- IgG antipeptide activity [3, 28]: 80 Optical density
- IgM antipeptide activity [3, 28]: 245 Optical density
- IgG antipeptide activity [3, 29]: 60 Optical density
- IgM antipeptide activity [3, 29]: 136 Optical density
- IgG antipeptide activity [3, 30]: 600 Optical density
- IgM antipeptide activity [3, 30]: 145 Optical density
- IgG antipeptide activity ([3]; Patient three, Pre Infection): 74 Optical density
- IgM antipeptide activity ([3]; Patient three, Pre Infection): 103 Optical density
